Measurements from ChEMBL document CHEMBL1135340, “Efficient liquid-phase synthesis of 2'-hydroxychalcones” (Bioorg Med Chem Lett, 2002).

System: MCF7
Assay: Cytotoxic concentration against MCF-7 cells was determined
Assay type: functional, cell-based
Details: Homo sapiens

`O=C(/C=C/c1ccc(Br)cc1)c1ccccc1O` was tested, and the IC50 was 12.3 µM.
